{"source": "paper PMC5053890", "about": "(Bioorganic & medicinal chemistry, 2016)", "molecular_target": "T1, GVIA iPLA2 (Homo sapiens, UniProt O60733)", "T1 sequence (O60733 1-806)": "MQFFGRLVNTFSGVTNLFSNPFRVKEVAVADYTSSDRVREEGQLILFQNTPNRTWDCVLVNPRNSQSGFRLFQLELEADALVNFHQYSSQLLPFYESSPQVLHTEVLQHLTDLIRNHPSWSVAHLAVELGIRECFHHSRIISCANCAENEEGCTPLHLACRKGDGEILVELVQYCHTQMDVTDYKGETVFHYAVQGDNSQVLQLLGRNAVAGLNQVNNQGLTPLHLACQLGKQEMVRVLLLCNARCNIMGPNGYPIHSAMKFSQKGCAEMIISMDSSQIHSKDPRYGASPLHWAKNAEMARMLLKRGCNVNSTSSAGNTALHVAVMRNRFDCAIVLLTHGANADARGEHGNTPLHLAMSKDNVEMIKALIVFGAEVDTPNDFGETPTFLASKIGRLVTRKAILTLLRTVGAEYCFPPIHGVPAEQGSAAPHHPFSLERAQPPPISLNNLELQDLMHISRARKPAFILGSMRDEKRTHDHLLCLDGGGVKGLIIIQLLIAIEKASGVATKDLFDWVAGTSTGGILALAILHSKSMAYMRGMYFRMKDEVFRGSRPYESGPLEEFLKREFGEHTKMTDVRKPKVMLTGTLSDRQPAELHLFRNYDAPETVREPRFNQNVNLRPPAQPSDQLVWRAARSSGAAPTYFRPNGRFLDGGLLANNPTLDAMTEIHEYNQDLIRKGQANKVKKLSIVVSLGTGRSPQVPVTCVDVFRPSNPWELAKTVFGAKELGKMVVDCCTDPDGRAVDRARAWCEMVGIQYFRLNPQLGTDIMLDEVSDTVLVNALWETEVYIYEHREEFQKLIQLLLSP", "test": "mixed micelle modified Dole assay, GVIA iPLA2", "assay_type": "biochemical", "details": "read-out: IC50 (converted from XI(50)); 0.091 mole fraction corresponds to 50 μM"}
{"smiles": "CCCCCCCCSCC(=O)C(F)(F)F", "note": "[Compound 3]", "values": [{"measurement": "IC50", "value": 110, "unit": "nM"}]}
